# Columns and labels:
# Streptococcus pneumoniae [1] = test: Antibacterial activity against penicillin-intermediate Streptococcus pneumoniae after 20 to 24 hrs by broth microdilution method; assay type: functional
# Staphylococcus aureus [2] = test: Antimicrobial activity against methicillin-susceptible Staphylococcus aureus after 20 to 24 hrs by broth microdilution method; assay type: functional
# Staphylococcus aureus [3] = test: Antimicrobial activity against methicillin-resistant Staphylococcus aureus after 20 to 24 hrs by broth microdilution method; assay type: functional
# Enterococcus faecium [4] = test: Antibacterial activity against vancomycin-resistant Enterococcus faecium after 20 to 24 hrs by broth microdilution method; assay type: functional
# Streptococcus pneumoniae [5] = test: Antibacterial activity against penicillin-resistant Streptococcus pneumoniae after 20 to 24 hrs by broth microdilution method; assay type: functional
# Enterococcus faecalis [6] = test: Antimicrobial activity against vancomycin-susceptible Enterococcus faecalis after 20 to 24 hrs by broth microdilution method; assay type: functional
# Enterococcus faecalis [7] = test: Antimicrobial activity against vancomycin-resistant Enterococcus faecalis after 20 to 24 hrs by broth microdilution method; assay type: functional
# Homo sapiens = test: Plasma concentration in human at 7.5 mg/kg; assay type: ADME, organism-based; parameters: dose 7.5 mg/kg; settings: in vivo
# [8] = Protein binding in human plasma; assay type: ADME, cell-free; settings: read-out: PB (converted)
# Enterococcus faecium [9] = test: Antibacterial activity against vancomycin-susceptible Enterococcus faecium after 20 to 24 hrs by broth microdilution method; assay type: functional
# Staphylococcus [10] = test: Antimicrobial activity against methicillin-resistant coagulase-negative Staphylococcus after 20 to 24 hrs by broth microdilution method; assay type: functional
# [11] = test system: Streptococcus sp. 'group B'; test: Antimicrobial activity against Streptococcus group B after 20 to 24 hrs by broth microdilution method; assay type: functional
# Streptococcus pneumoniae [12] = test: Antibacterial activity against penicillin-susceptible Streptococcus pneumoniae after 20 to 24 hrs by broth microdilution method; assay type: functional
# Streptococcus viridans = test: Antimicrobial activity against Streptococcus viridans after 20 to 24 hrs by broth microdilution method; assay type: functional
# [13] = test system: Streptococcus sp. 'group A'; test: Antimicrobial activity against Streptococcus group A after 20 to 24 hrs by broth microdilution method; assay type: functional
# Staphylococcus [14] = test: Antimicrobial activity against methicillin-susceptible coagulase-negative Staphylococcus after 20 to 24 hrs by broth microdilution method; assay type: functional
smiles,measurement,setting,value
CCCCCCCCCCNCCN[C@@]1(C)C[C@H](O[C@H]2[C@H](Oc3c4cc5cc3Oc3ccc(cc3Cl)[C@@H](O)[C@@H](NC(=O)[C@@H](CC(C)C)NC)C(=O)N[C@@H](CC(N)=O)C(=O)N[C@H]5C(=O)N[C@H]3C(=O)N[C@H](C(=O)N[C@H](C(=O)O)c5cc(O)c(CNCP(=O)(O)O)c(O)c5-c5cc3ccc5O)[C@H](O)c3ccc(c(Cl)c3)O4)O[C@H](CO)[C@@H](O)[C@@H]2O)O[C@@H](C)[C@H]1O [TELAVANCIN],MIC50,Streptococcus pneumoniae [1],0.015 µg/mL
same,MIC90,Streptococcus pneumoniae [1],0.03 µg/mL
same,MIC50,Staphylococcus aureus [2],0.25 µg/mL
same,MIC90,Staphylococcus aureus [2],0.25 µg/mL
same,MIC50,Staphylococcus aureus [3],0.25 µg/mL
same,MIC90,Staphylococcus aureus [3],0.25 µg/mL
same,MIC50,Enterococcus faecium [4],1 µg/mL
same,MIC90,Enterococcus faecium [4],2 µg/mL
same,MIC,Streptococcus pneumoniae [5],0.015 µg/mL
same,MIC50,Streptococcus pneumoniae [5],0.015 µg/mL
same,MIC90,Streptococcus pneumoniae [5],0.03 µg/mL
same,MIC50,Enterococcus faecalis [6],0.25 µg/mL
same,MIC90,Enterococcus faecalis [6],0.5 µg/mL
same,MIC50,Enterococcus faecalis [7],4 µg/mL
same,MIC90,Enterococcus faecalis [7],8 µg/mL
same,Cp,Homo sapiens,96.7 µg/mL
same,fraction unbound,[8],0.1
same,MIC50,Enterococcus faecium [9],0.12 µg/mL
same,MIC90,Enterococcus faecium [9],0.25 µg/mL
same,MIC50,Staphylococcus [10],0.25 µg/mL
same,MIC90,Staphylococcus [10],0.25 µg/mL
same,MIC50,[11],0.06 µg/mL
same,MIC90,[11],0.06 µg/mL
same,MIC50,Streptococcus pneumoniae [12],0.015 µg/mL
same,MIC90,Streptococcus pneumoniae [12],0.03 µg/mL
same,MIC50,Streptococcus viridans,0.06 µg/mL
same,MIC90,Streptococcus viridans,0.06 µg/mL
same,MIC,[13],0.03 µg/mL
same,MIC50,[13],0.03 µg/mL
same,MIC90,[13],0.06 µg/mL
same,MIC50,Staphylococcus [14],0.25 µg/mL
same,MIC90,Staphylococcus [14],0.25 µg/mL
